Our source for the melting point values is a melting point compilation (Tetko et al.; mined from patent text by program, amines drawn as free bases though some values may be those of a salt).

A word on the melting point: it is the temperature, or range, at which the solid turns liquid. Compound `CCCCCCCCCCc1cnc(-c2ccc(OCC(C)(C#N)CCCC)cc2)nc1` (stereo not drawn) showed a melting point of 43 °C.

`CC(C)N(C[C@H](O)CO)S(C)(=O)=O` had a melting point of 67 to 70 °C.

Turning to `COc1ccc(N2C(=O)[C@H](NC(=O)OC(C)(C)C)[C@@H]2CON2C(=O)c3ccccc3C2=O)cc1` (relative stereo), the melting point lay in the range of 188 to 189 °C.

`CC(C)(C)OC(=O)NCCCCC(=O)Nc1cccc(C(=O)O)c1`: the melting point was 188 °C.

In turn, `Cc1cc(=O)n(-c2cc(C(=O)OC(C)C)c(Cl)cc2F)c(=O)n1C(F)F` displayed a melting point of 90 to 93 °C.

`CS(=O)(=O)Oc1cc([N+](=O)[O-])c(F)cc1Cl` displayed a melting point of 64 to 65.5 °C.

With `CCCCCS(=O)(=O)NC(=O)CCc1cc(OCc2nnc(C)o2)nn1Cc1ccc(Cl)cc1Cl`, the melting point fell in the range of 156 to 158 °C.

As to `CS(=O)(=O)c1ccc(C(CC2CCCC2)C(=O)Nc2ccc3ccccc3n2)cc1Br` (stereo not drawn), the melting point is 95 to 100 °C.

Compound `N#Cc1cc(Br)cc2ccc(O)c(Cl)c12` came in with a melting point of 148 to 150 °C.

Consider `CC(C)N(Cc1nc(-c2ccccc2)no1)C(=O)COc1ccc(C(=O)O)cc1`, for which the melting point was 211 to 214 °C.

The compound `CC1(C)COc2ccc(OS(C)(=O)=O)cc21` displayed a melting point of 75 to 77 °C.

As to `CCOC(=O)c1c2n(c3c(Br)c(N4CCN(C)CC4)c(F)cc3c1=O)C(C)S2` (stereo not drawn), the melting point lay in the range of 189 to 190 °C.

Consider `COC1(c2ccc(N(C)C)cc2)OC(=O)c2ccccc21` (stereo not drawn), for which the melting point was in the range of 112 to 114 °C.

For the compound `O=CC(=Cc1cccc(OCc2ccccc2)c1)C(C=O)=Cc1cccc(OCc2ccccc2)c1`, the melting point was 126 to 127 °C.

`CC1(C(O)(Cc2ccccc2Cl)Cn2cncn2)CCCCC1` (stereo not drawn) gave a melting point of 105 °C.

In turn, `COc1ccccc1C=C1NC(=O)NC1=O` showed a melting point of 174 to 179 °C.

Regarding `C#CCOc1cc(N=C(C=NOC)N2CCCC2)c(F)cc1Cl`, the melting point is 73 to 75 °C.

Consider `CNS(=O)(=O)Cc1ccc(NN=CCSc2ccccc2)cc1`, for which the melting point fell in the range of 110 to 112 °C.

Take `CC(=O)NC(Cc1ccc(Cl)c(Cl)c1)C(=O)OCc1cc(C)cc(C)c1` (stereo not drawn): the melting point is 118 to 119 °C.

Compound `Nc1cc2c(cc1C(=O)c1ccccc1Cl)CCC2` came in with a melting point of 90 to 92 °C.

`CC1(C)C(=O)Nc2ccc(-c3cc(F)cc(Cl)c3)cc21`: the melting point was in the range of 206 to 207 °C.

The compound `CCCCC[C@H]1CC[C@H](CC[C@H]2CC[C@H](C#N)CC2)CC1` gave a melting point of 56.3 °C.

For `CO[C@](C)(c1cc(F)cc(OCc2ccc3ccccc3c2)c1)[C@H](C)O` (racemic), the melting point fell in the range of 62 to 63 °C.

In turn, `CN1C(=O)C(NC(=O)NCc2ccccc2)N=C(c2ccccc2)c2ccccc21` (stereo not drawn) gave a melting point of 240 to 242 °C.

As for `C[C@H]1[C@@H](O)CC(=O)N1c1ccc(C#N)c(Cl)c1`, the melting point was in the range of 161 to 162 °C.

In turn, `Cc1onc(-c2ccccc2)c1C(=O)NCCCCl` had a melting point of 122 to 124 °C.

Turning to `CC(C)C(=O)c1cccn1N1C(=O)c2ccccc2C1=O`, the melting point was in the range of 147 to 149 °C.

With `Oc1ccc2c(-c3noc4cc(O)ccc34)cccc2c1`, the melting point is 268 to 288 °C.

As to `CC(O)c1ccc(-c2ccc(C(F)(F)F)cc2)cc1` (stereo not drawn), the melting point lay within 116 to 117 °C.

Regarding `Cc1cc(OCc2ccc(-c3ccc(C(F)(F)F)cc3)nn2)ccc1OC(C)(C)C(=O)O`, the melting point was in the range of 191 to 192 °C.

As to `CCCc1ccc(S(=O)(=O)Nc2ccc3nc(C)oc3c2)cc1`, the melting point was 102 °C.

For `CC(C(=O)CC(C)(C)Cc1ccc(Cl)cc1)N1C(=O)c2ccccc2C1=O` (stereo not drawn), the melting point is 96 to 98 °C.

As for `N#Cc1nn(-c2c(Cl)cc(C(F)(F)F)cc2Cl)c(NCc2ccncc2)c1SCF`, the melting point worked out at 204 °C.

For `CCOc1cc(Cn2cc(CCC(=O)O)c(OCC)n2)ccc1OCc1nc(-c2ccccc2)oc1C`, the melting point is 105 to 106 °C.

In the case of `O=S(=O)(Nc1ccc(I)cc1)c1ccccc1`, the melting point fell in the range of 141 to 143 °C.

`O=C(Cc1ccsc1)Nc1ccc(Br)cn1` came in with a melting point of 117 °C.

`Cc1nnc(N2N=C(c3ccc([N+](=O)[O-])cc3)c3cc4c(cc3C[C@H]2C)OCO4)o1` registered a melting point of 202 to 204 °C.

`CN1CCN(CCCc2c[nH]c(-c3ccc(F)cc3)c2-c2ccncc2)CC1`: the melting point fell in the range of 190 to 192 °C.

In turn, `Cc1ccccc1-c1cc(Cl)ncc1C#N` registered a melting point of 112 °C.

`OC[C@H]1C[C@H]2CN(c3ncc(F)cn3)CCN2C1` registered a melting point of 123 to 124 °C.

The compound `CC(CN(C)C)On1c(=O)nc(-c2ccc3c(c2)OCO3)c2cc3c(cc21)OCO3` (stereo not drawn) gave a melting point of 160 to 165 °C.

As to `CCCn1c(=O)c2[nH]c(/C=C/c3ccc(Cl)cc3)nc2n(CCC)c1=O`, the melting point is above 290 °C.

Regarding `CCOC(=O)c1c(CN2CCCCC2)nc2cc(OCC)c(OCC)cc2c1-c1ccc(OC)c(OC)c1`, the melting point was 154 to 155 °C.

For the compound `O=c1c2ccccc2ccc2cc(F)ccc12`, the melting point was 119 to 123 °C.

`CCC(=O)Nc1cccc2c1C(=O)N(C1(C)CCC(=O)NC1=O)C2=O` (stereo not drawn) returned a melting point of 222 to 224 °C.

On to `CCc1cc(C2=CCN(CCCC(O)c3ccc(F)cc3)CC2)[nH]n1` (stereo not drawn), for which the melting point fell in the range of 140 to 142 °C.

`CCOCc1nc2c(N)nc3c(c2n1CCCCS(=O)(=O)NC)CCCC3` gave a melting point of 188 to 192 °C.

Compound `CCC(CC)/C(N)=C(\C#N)C(=O)Cl` showed a melting point of 102 °C.

The compound `CCc1cccc2c1C(=O)C(=S)N2` showed a melting point of 171 to 172 °C.

In turn, `CN(C)S(=O)(=O)c1cc(-c2csc(=Nc3ccc(F)cc3)n2C)ccc1Cl` had a melting point of 144 to 145 °C.

`Cc1cc(NC(=O)Cc2ccccc2C(F)(F)F)cc(C)c1S(=O)(=O)C[N+](=O)[O-]` returned a melting point of 203 to 204 °C.

`CC(C)(C)[Si](C)(C)OCC1(CO[Si](C)(C)C(C)(C)C)COc2cc(I)cc3c(=O)c(C(=O)NCc4ccc(Cl)cc4)cn1c23` had a melting point of 158 to 159 °C.

Take `CCSc1nc(O)ns1`: the melting point worked out at 129 °C.

For `O=C(NCc1ccc(Cl)cc1)c1cnc2sc(C(=O)N3CCOCC3)cc2c1O`, the melting point lay within 217 to 219 °C.

`COc1cc(OC)c(-c2cc3ccccc3[nH]2)cc1C=CC(=O)c1ccc(S(=O)(=O)NCCCn2ccnc2)cc1` showed a melting point of 197 to 200 °C.

For `CCOC(=O)c1ccc(CCNc2ncnc(CC)c2Cl)cc1`, the melting point lay in the range of 134 to 135 °C.

Compound `CCC(CC)Oc1ccc(-n2cc(C(=O)O)cn2)cc1C#N` yielded a melting point of 142 to 144 °C.

In the case of `CN1CCN(C(=O)c2c(Br)c(Br)c([N+](=O)[O-])c3c2OCCO3)CC1`, the melting point is 164 °C.

The compound `COC(=O)Nc1cc(Oc2ccc3c(C(=O)Nc4ccc(CN5CCNCC5)c(C(F)(F)F)c4)cccc3c2)ncn1` had a melting point of 138 to 148 °C.

With `COc1ccc(C(=O)N2CCC(CCN3CCC(Nc4nc5ccccc5[nH]4)CC3)(c3ccccc3)C2)c(OC)c1OC` (stereo not drawn), the melting point fell in the range of 112 to 119 °C.

The compound `CCCN(CCC)c1nc(C#N)c(C#N)nc1CC` returned a melting point of 58 to 60 °C.

Compound `Cc1cn2cccc(OCc3c(Cl)ccc(S(=O)(=O)N4CCC[C@H]4C(=O)O)c3Cl)c2n1` yielded a melting point of 135 °C.

Compound `C=CCOC(=O)C1=C2c3ccccc3CC[C@@H]2[C@@H]2[C@@H]([C@@H](C)O)C(=O)N12` had a melting point of 133 to 134 °C.

In turn, `Nc1ccsc1C(=O)NC/C=C\COc1cc(CN2CCCCC2)ccn1` gave a melting point of 138 to 140 °C.

For `Fc1ccc(-c2cc(N3CCN(C4CC4)CC3)nc3c2CCCCCC3)cc1`, the melting point is 125 to 128 °C.

For `CC(=O)Nc1ccn([C@@H]2CC[C@H](OC(C)=O)[C@@H](OC(C)=O)[C@H]2OC(C)=O)c(=O)n1` (racemic), the melting point was determined as 226 °C.

For the compound `Oc1ccc(-c2nc(Br)c[nH]2)cc1`, the melting point is 210 to 212 °C.

The compound `CCn1ncc2c3noc(-c4ccc(F)cc4)c3cnc21` displayed a melting point of 222 to 223 °C.

The compound `COC(=O)c1ccc2c(c1)COc1ccc(/C=C/c3ccc4c(n3)CCCC4)cc1C2SCCC(=O)O` (stereo not drawn) had a melting point of 121 to 123 °C.

Consider `CCCC(=O)C1=C(n2cccn2)CC(C2CCCSC2)CC1=O` (stereo not drawn), for which the melting point was 127 °C.

Turning to `CC(=O)OC1CCN2C(=O)N(c3ccc(C#N)c4ccccc34)C(=O)C12` (stereo not drawn), the melting point was found to be 105 °C.

As to `CNC1(c2ccccc2Cl)C(=O)N(S(=O)(=O)c2ccc(NC(=O)c3ccccc3Cl)cc2)c2ccc(Cl)cc21` (stereo not drawn), the melting point fell in the range of 221 to 222 °C.

As to `CCOc1ccc(S(C)(=O)=O)cc1C(=O)Nc1c(C(N)=O)nn(CCOC)c1CC`, the melting point lay within 190 to 192 °C.

Regarding `Cc1cccc2[nH]c(=O)n3ccnc3c12`, the melting point is 308 to 310 °C.

`COc1ccc(OCc2ccccn2)cc1/C=C/c1cc(/C=C/c2ccc3[nH]ccc3c2)n[nH]1`: the melting point lay within 116 to 122 °C.

For the compound `CCC(=CC(CNC(=O)c1nc[nH]c1C)=NO)C(C)[N+](=O)[O-]` (stereo not drawn), the melting point lay within 125 to 127 °C.

`O[C@H](CCc1cccnc1)COc1ccc(-c2ccc(F)cc2)cc1` displayed a melting point of 124 to 125 °C.

The compound `COc1ccc(C=CC=Cc2ccccc2)cc1` yielded a melting point of 160 to 162 °C.

As for `Clc1cnn(CCCCN2CCN(c3ccccc3)CC2)c1`, the melting point lay within 58 to 61 °C.

`CS(=O)(=O)Nc1cc2occ(Br)c(=O)c2cc1Oc1ccccc1`: the melting point was 215 to 216 °C.

`O=c1c2ccc(OCCCN3CCN(Cc4ccc(Cl)cc4)CC3)cc2oc2nn[nH]c12` showed a melting point of 215 to 216 °C.

The compound `COCCc1nc2c(N)nc3ccccc3c2n1CCOCCN(C)C(=O)c1ccccc1` returned a melting point of 93.5 to 97 °C.

Compound `CC[C@@H](O)CC(=O)N[C@H]1CC[C@H](CCN2CCN(c3nccc4c3OCC4)CC2)CC1` registered a melting point of 146 °C.

The compound `N#Cc1c(I)[nH]c(I)c1I` gave a melting point of 257 to 258 °C.

In turn, `CN(C)C(=O)N[C@H]1CC[C@H](CCN2CCC(c3cccc4c3CCO4)CC2)CC1` showed a melting point of 260 °C.

`CN(C)C=Cc1cccnc1C#N`: the melting point lay within 71.5 to 72 °C.

For `Nc1cccc(C(=O)c2cccc(C(=O)c3cccc(N)c3)c2)c1`, the melting point is 114 to 117 °C.

Compound `COc1ccc2c3c(c(Cl)nc2c1)C(=O)c1ccccc1-3` came in with a melting point of 261 to 266 °C.
